# According to patent US20240238310A1, “MODULATION OF SEX STEROID HORMONE PRODUCTION AND ACTIVITY FOR TREATING AND PREVENTING HERNIAS” (Northwestern University, priority 2020, published 2024):
# Biological target: T1, ERα (Mus musculus, UniProt P19785)
# T1 construct: ERα in LAMT is almost exclusively expressed in fibroblasts; endogenous in cells; host or cells: primary LAMT fibrosis-associated fibroblasts (passage 0) from 4-week-old Arom^hum (FVB/N background) male mice
# T1 sequence (P19785 1-599): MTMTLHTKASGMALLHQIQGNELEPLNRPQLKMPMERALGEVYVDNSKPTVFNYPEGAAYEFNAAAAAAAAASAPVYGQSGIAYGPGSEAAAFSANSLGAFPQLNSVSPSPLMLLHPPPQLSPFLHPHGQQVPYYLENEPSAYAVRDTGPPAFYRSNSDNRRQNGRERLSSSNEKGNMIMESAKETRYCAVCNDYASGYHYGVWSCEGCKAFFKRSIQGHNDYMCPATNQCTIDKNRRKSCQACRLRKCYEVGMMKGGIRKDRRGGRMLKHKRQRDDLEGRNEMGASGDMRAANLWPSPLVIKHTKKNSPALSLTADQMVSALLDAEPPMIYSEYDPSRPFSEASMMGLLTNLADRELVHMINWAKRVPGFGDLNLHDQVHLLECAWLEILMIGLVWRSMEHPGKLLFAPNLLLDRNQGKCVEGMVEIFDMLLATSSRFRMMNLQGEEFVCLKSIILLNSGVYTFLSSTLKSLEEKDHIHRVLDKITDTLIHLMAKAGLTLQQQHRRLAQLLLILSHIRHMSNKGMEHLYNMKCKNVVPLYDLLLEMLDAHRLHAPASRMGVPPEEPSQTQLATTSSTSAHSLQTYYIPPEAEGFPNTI
# Experiment: ERα ChIP-seq, histone ChIP-seq and RNA-seq in LAMT FAFs treated with E2 or fulvestrant (planned)
# Assay type: cell-based
# Settings: expected result (Aim 1); fulvestrant 10^−7 M, 24 h
# Excerpt: Early herniation in Arom^hum mice usually become visible around 4 weeks of age (FIG. 5). Thus, we will isolate LAMT transformed FAFs at 4 weeks of age. We routinely culture primary fibroblast cells from LAMT of both WT and Arom^hum mice (FIGS. 6-9). The quantity of FAFs (>10^7 cells/Arom^hum mouse) is sufficient for performing the proposed experiments. Previously, we successfully used two antibodies for ERα ChIP-seq or other genome-wide ChIP approaches^84, 85. We will perform optimization studies (ChIP-western and conventional ChIP) with both antibodies in primary muscle fibroblasts and use the most suitable antibody for ChIP-seq^84. […] Library quality will be assessed using the Agilent 2100 Bioanalyzer. Sequencing will be performed at the Next-Generation Sequencing Core at Northwestern to obtain 30 million single-end 75-bp reads per sample. […]
# Experiment 1b2: We will perform RNA-seq at 40 million reads per sample on the 12 LAMT FAF samples treated for 24 h with vehicle, E2 (10^−8M), or fulvestrant (10^-7 M) (n=4 mice/group). […] The RNA-seq data will be evaluated using pathway analysis and gene enrichment strategies with respect to the differentially expressed (DE) transcripts/genes induced by E2 and reversed by fulvestrant.
# Bioinformatics analysis for ChIP-seq, RNA-seq, and their integration. […] The differential binding (DB) sites will be detected using csaw^89. […]
structure (smiles),measurement,value
C[C@]12CC[C@@H]3c4ccc(O)cc4C[C@@H](CCCCCCCCC[S+]([O-])CCCC(F)(F)C(F)(F)F)[C@H]3[C@@H]1CC[C@@H]2O (stereo partly shown) [fulvestrant],"E2-induced ERα binding, histone modification and gene expression profiles in LAMT FAFs","will block or partially reverse E2-induced ERα binding and histone modification, and alter gene expression profiles"
